These results are taken from publication PMC4728187, “A fluorescent approach for identifying P2X1 ligands” (Neuropharmacology, 2015).

Values joined by “and” are separate entries in the source; they are usually repeats but may differ in a detail not shown here. Equal values may be shown once. “Also recorded” adds a separate entry of the source.

Data set [1] concerns the target P2X1 with N-terminus substituted by that of P2X2 receptor. More on the design: method as in Rettinger and Schmalzing, 2004; Bhargava et al., 2013. Particulars: desensitisation slowed by P2X2 N-terminus substitution; ref Rettinger and Schmalzing, 2004; Bhargava et al., 2013; cited from earlier work.
Data set [2] deals with T1, P2X1 receptors (Homo sapiens, UniProt P51575).
T1 sequence (P51575 1-399): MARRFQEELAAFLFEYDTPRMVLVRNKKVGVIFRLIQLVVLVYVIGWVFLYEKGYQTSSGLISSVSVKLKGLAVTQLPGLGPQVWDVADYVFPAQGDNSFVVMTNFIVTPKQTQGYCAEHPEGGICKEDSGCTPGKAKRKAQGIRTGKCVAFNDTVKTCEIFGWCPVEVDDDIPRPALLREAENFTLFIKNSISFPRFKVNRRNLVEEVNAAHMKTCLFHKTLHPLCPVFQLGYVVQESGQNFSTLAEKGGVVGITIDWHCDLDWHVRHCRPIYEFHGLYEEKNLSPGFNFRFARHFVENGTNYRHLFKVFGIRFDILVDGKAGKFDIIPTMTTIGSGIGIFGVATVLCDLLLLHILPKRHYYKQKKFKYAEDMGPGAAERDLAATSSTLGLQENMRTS
Nature of the data set: Confocal imaging of Alexa-647-ATP cell-surface labelling and competition by pre-treatment.
Source text: (§1) Live cells were routinely visualised in phosphate buffered saline (PBS (mM); 155 NaCl, 3.0 Na2HPO4, 1.0 KH2PO4, pH 7.4). Static and time-lapse images were collected using a FV300 laser-scanning confocal microscope with either an Olympus UplanFLN 40 × NA1.30 oil immersion objective and a 60 μm confocal aperture, or a PlanApo 60x NA1.42 oil immersion objective and a 60 μm confocal aperture. Images were exported to ImageJ v1.47 (National Institutes of Health, USA) and the Multi Measure plugin (Optinav Inc, WA, USA) used for analysing regions of interest.

Data set [3] addresses T1, P2X1 receptors. Nature of the data set: Fluorometric microplate assay with voltage-sensitive (membrane potential) dye, FlexStation III. The data set is classed as cell-based. Also on record: expressed in transfected cells. Particulars: for Hill slope (agonist response): agonist concentration-response; for EC50 / pEC50: agonist, peak fluorescence, HEK 293T cells stably expressing P2X1; for Hill slope (inhibition): inhibition of 10 μM ATP responses. The procedure: In brief, fragments were assessed for both agonist and antagonist activities using HEK 293T cells stably expressing doxycycline-inducible P2X1 receptors incubated for 45 min with 50 μl of a fluorescent dye sensitive to membrane potential (dye FLIPR Membrane Potential Assay Kit, Molecular Devices, Wokingham, UK) that was dissolved in buffer (mM: 115 NaCl, 1 KCl, 1 MgCl2, 1 CaCl2, 10 HEPES, 10 D-Glucose, pH 7.4). Dye-loaded cells were transferred to a FlexStation III (Molecular Devices) where compound applications were made without removing the dye. At recording intervals of 1.2 s, baseline fluorescence was recorded for 20 s, followed by a further 60 s after the addition of compounds. Ultimately two applications were made to the same cells. In the first, agonist activity was assessed by adding 50 μl novel fragment (final concentration = 300 μM) to each well. Following the completion of the first application, a second 50 μl application of 30 μM ATP (final concentration = 10 μM) was then added to the same cells. A response upon the first (fragment) application and an absence of a response on the second (ATP) application indicated agonist activity followed by inhibition as a result of receptor desensitisation.
In addition to testing fragments, the reproducibility of each experiment was assessed by including an ATP concentration–response in the first column and a saline control in the last column of the first application. […] The saline control in the first application also meant that an ATP concentration–response could be performed at the end of the second application. This allowed cell viability to be assessed by comparing the ATP concentration–response at the start of the first application with the ATP concentration–response at the end of the second application. […] Measurements from these concentration-dependence experiments were fitted using Eq. (1) below.
Measurements from the FlexStation III were recorded using the integrated software SoftMax Pro v5.4.5 (Molecular Devices). Analysis of concentration-dependence was performed with GraphPad Prism v5.00 (GraphPad Software, San Diego, CA, USA). Peak fluorescence was measured at a range of ligand concentrations and normalised to the maximum peak fluorescence for the same experiment. The mean and standard error of the mean (S.E.M.) for a series of measurements was plotted against agonist or antagonist concentration and iteratively fitted to the following equation:(1) y=Imin+Fmax−Fmin/1+10^((logR50-x)^nH) where Fmin is the baseline fluorescence, Fmax is the peak fluorescence, R50 is the concentration of ligand needed to generate a half-maximal response, x is the ligand concentration and nH is the Hill slope.

In data set [4] the test system is Untransfected HEK 293T cells. As to the kind of experiment: Fluorometric microplate assay with voltage-sensitive dye on untransfected cells. The data set is classed as cell-based.
Data set [5] concerns the target T2, P2X7 receptors (Homo sapiens, UniProt Q99572).
T2 construct: expressed in transfected cells; host or cells: HEK 293T
T2 sequence (Q99572 1-595): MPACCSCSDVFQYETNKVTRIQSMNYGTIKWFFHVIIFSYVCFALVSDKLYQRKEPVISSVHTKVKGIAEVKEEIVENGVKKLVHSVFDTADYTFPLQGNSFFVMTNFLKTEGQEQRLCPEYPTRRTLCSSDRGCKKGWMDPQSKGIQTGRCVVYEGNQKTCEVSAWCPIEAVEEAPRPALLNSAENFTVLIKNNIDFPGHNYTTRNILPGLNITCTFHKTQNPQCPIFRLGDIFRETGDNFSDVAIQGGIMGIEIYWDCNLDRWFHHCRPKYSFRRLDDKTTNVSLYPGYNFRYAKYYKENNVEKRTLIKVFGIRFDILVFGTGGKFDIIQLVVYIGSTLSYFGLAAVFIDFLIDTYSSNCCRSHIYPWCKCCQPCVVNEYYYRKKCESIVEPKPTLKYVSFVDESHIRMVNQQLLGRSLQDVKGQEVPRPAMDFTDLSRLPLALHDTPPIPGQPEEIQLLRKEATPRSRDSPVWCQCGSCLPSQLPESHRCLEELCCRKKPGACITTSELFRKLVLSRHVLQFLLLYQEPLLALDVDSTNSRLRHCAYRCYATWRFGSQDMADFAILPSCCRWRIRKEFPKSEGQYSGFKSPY
As to the kind of experiment: Confocal imaging of Alexa-647-ATP labelling, P2X7-expressing cells. Particulars: HEK 293T cells expressing P2X7, data not shown. The class given is binding.

Data set [6] concerns the target T1, P2X1 receptors. Nature of the data set: Confocal microscopy kinetic analysis of Alexa-647-ATP binding at the cell surface. Also on record: expressed in transfected cells. How it is done:
Kinetic parameters were determined according to the following model of a simple bimolecular binding scheme:(2) L+R⇌koffkonLR where L is the free ligand concentration, R is receptor concentration, LR is the ligand–receptor complex and kon and koff are the microscopic association and dissociation rate constants. In a simple scheme such as this, the equilibrium dissociation constant (Kd) is equal to the ratio of dissociation to association rate constants, such that:(3) Kb=k−1/k+1
According to a one site binding model of the type shown, the observed rates of association and dissociation can be used to estimate k+1 and k−1:(4) 1/τoff=k−1 and(5) 1/τon=k+1[L]+k−1 where τon refers to the rate at which fluorescence increases, τoff refers to the rate that fluorescence decreases and [L] is concentration of the ligand used.
Intracellular and background fluorescence was also routinely monitored as a control.

In data set [7] the test system is non-induced HEK 293T cells. Nature of the data set: Confocal imaging of Alexa-647-ATP labelling on non-induced cells. The class given is binding. Particulars: 150 nM Alexa-647-ATP.
Source text: as §1
Data set [8] has as its target T3, P2X4 receptors (Homo sapiens, UniProt Q99571).
T3 construct: expressed in transfected cells; host or cells: HEK 293T
T3 sequence (Q99571 1-388): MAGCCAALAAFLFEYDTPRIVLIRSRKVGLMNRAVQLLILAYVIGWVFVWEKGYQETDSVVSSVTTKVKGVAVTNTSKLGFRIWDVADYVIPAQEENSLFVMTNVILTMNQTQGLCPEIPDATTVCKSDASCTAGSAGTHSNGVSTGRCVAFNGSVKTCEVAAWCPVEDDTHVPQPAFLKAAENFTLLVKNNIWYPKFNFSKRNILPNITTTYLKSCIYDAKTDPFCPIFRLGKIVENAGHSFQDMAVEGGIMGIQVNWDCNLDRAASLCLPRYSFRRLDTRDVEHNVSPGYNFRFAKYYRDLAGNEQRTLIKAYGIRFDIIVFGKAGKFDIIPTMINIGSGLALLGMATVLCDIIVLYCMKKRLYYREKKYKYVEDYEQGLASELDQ
As to the kind of experiment: Confocal imaging of Alexa-647-ATP labelling, P2X4-expressing cells. The data set is classed as binding. Particulars: HEK 293T cells expressing P2X4, data not shown.

Setting [9] is: pre-treated with 5 mM, 150 nM Alexa-647-ATP.

For the molecule `Nc1ncnc2c1ncn2[C@@H]1O[C@H](COP(=O)(O)OP(=O)(O)OP(=O)(O)O)[C@@H](O)[C@H]1O` [ATP], the 50% effective concentration (EC50) entry in data set [1] was “low nanomolar”. For the same molecule, in data set [2] (setting [9]), the “Alexa-647-ATP cell-surface fluorescence after pre-treatment” value (from here on “Alexa-647-ATP cell-surface fluorescence”) is listed as “not seen”.
Consider `Nc1ncnc2c1ncn2[C@@H]1O[C@H](COP(=O)(O)OP(=O)([O-])OP(=O)([O-])O)[C@@H](O)[C@H]1O.[Mg+2]` [MgATP], for which, in data set [3], the “Hill slope (agonist response)” value came out at 1.0 ± 0.1, the EC50 came out at 14.1 µM and the pEC50 was 4.85 ± 0.07. Moreover, the “fluorescent response to agonist” value in data set [4] is given as “did not respond”.
For the molecule `O=C(Nc1cc(C(=O)Nc2ccc(S(=O)(=O)O)cc2S(=O)(=O)O)cc(C(=O)Nc2ccc(S(=O)(=O)O)cc2S(=O)(=O)O)c1)Nc1cc(C(=O)Nc2ccc(S(=O)(=O)O)cc2S(=O)(=O)O)cc(C(=O)Nc2ccc(S(=O)(=O)O)cc2S(=O)(=O)O)c1` [NF449], in data set [3], the “Hill slope (inhibition)” value is 1.1 ± 0.2. Besides, the “Alexa-647-ATP cell-surface fluorescence” value in data set [2] (pre-treated with 250 μM, 150 nM Alexa-647-ATP) is “not present; also recorded: not seen”.
On to `Nc1ncnc2c1ncn2[C@@H]1O[C@H](COP(=O)(O)OP(=O)([O-])OP(=O)([O-])O)[C@@H](O)[C@H]1O.[Na+].[Na+]` [NaATP], for which, in data set [3], the “Hill slope (agonist response)” value was determined as 0.9 ± 0.2, the EC50 was 5.49 µM and the pEC50 was 5.26 ± 0.09. For the same molecule, the “fluorescent response to agonist” value in data set [4] was “did not respond”. The “Alexa-647-ATP cell-surface fluorescence” value in data set [2] (setting [9]) is given as “not present”.
Take `Cc1ccc(C(=O)Nc2ccc(S(=O)(=O)O)c3cc(S(=O)(=O)O)cc(S(=O)(=O)O)c23)cc1NC(=O)c1cccc(NC(=O)Nc2cccc(C(=O)Nc3cc(C(=O)Nc4ccc(S(=O)(=O)O)c5cc(S(=O)(=O)O)cc(S(=O)(=O)O)c45)ccc3C)c2)c1` [suramin]: in data set [3], the “Hill slope (inhibition)” value turned out to be 1.5 ± 0.7. Moreover, the “Alexa-647-ATP cell-surface fluorescence” value is “still seen; also recorded: no competition was seen” in data set [2] (pre-treatment, concentration not printed, 150 nM Alexa-647-ATP) and “did not alter cell-surface fluorescence” in data set [2] (pre-treatment, concentration not printed, 150 nM Alexa-647-ATP, listed as Suramin).
As to Alexa-647-ATP, the “Hill slope (agonist response)” value in data set [3] came out at 1.1 ± 0.1. For the same molecule, the half-maximal effective concentration (EC50) in data set [3] is 5.75 µM; in data set [1], “low nanomolar”. Also, in data set [3], the negative logarithm of the EC50 (pEC50) was 5.24 ± 0.04. For the same molecule, the cell-surface fluorescence result in data set [5] is “could not detect any measureable fluorescence”; in data set [7] it was “not present”; in data set [8], “could not detect any measureable fluorescence”. Also, the kobs was 0.79 ± 0.08 min⁻¹ in data set [6] (0.5 μM Alexa-647-ATP) and 5.86 ± 0.58 min⁻¹ in data set [6] (5 μM Alexa-647-ATP). For the same molecule, in data set [6] (after rapid washing with PBS, mono-exponential fits), the “koff, direct measurement of dissociation” value was 0.40 min⁻¹ and 0.407 min⁻¹. In addition, the “association rate (kon)” value in data set [6] (slope of 1/τon (kobs) vs concentration) was determined as 1.142e+06 M⁻¹ s⁻¹. Further, in data set [6] (y-axis intercept of 1/τon (kobs) vs concentration), the “dissociation rate (koff)” value amounted to 0.136 s⁻¹. In addition, in data set [2] (150 nM Alexa-647-ATP, P2X1-expressing HEK 293T cells), the “cell-surface fluorescence after addition of ligand” value is recorded as “rapid increase in cell-surface fluorescence”. The “cell permeability (fluorescence inside labelled cells)” value in data set [2] (live HEK 293T cells, confocal) is listed as “not cell-permeable”.
